Measured values reported in patent US20260048138A1, “NOVEL PI3K AND/OR PIKK INHIBITORS, ANTIBODY-DRUG CONJUGATES COMPRISING THE SAME AND USES THEREOF” (HUTCHMED LIMITED, priority 2024, published 2026).
pIC50: −log10 of the molar value.

Key:
MDA-MB-453 = assay: Inhibition of cell proliferation by payloads in vitro (CCK-8); assay type: cell-based; conditions: Homo sapiens, MDA-MB-453, 144 h, read-out: IC50, nM MDA-MB-453; payloads, proliferation, 6 days, CCK-8
Protocol: (§1) The cells were added to a 96-well plate at 1.0×10^3 cells/well and 100 μL/well and incubated in a cell culture incubator at 37° C. and 5% CO2. The test compounds were diluted with a DMEM medium containing 2% DMSO (Sigma-Aldrich, Cat. No. 34869) in a 4-fold gradient to the corresponding concentrations. […] The final concentration of DMSO was 0.2%. The cells were incubated in a cell culture incubator at 37° C. and 5% CO2 for 6 days.
(§2) After 6 days of culture, 10 μL/well of Cell Counting Kit-8 reagent (CCK-8, Dojindo, Cat. No. CK04) was added to the wells and mixed well with shaking. The cells were incubated in a cell culture incubator at 37° C. and 5% CO2 for 0.50-4.0 hours.
(§3) The OD450 optical density value was read on an EnVision™ multi-function microplate reader (PerkinElmer), and the inhibition rates (%) of the compounds were calculated. Then, the half-maximal inhibitory concentration (IC50) values were obtained using the XLfit5 software (ID Business Solutions Limited). All samples were tested in duplicate wells.
(§4) [formula] • wherein • OD450test compound represents the optical density value in the wells of the compounds to be tested; • OD450cell represents the optical density value in the wells of cell controls; • OD450background represents the optical density value in the wells of cell-free controls.

MDA-MB-468 = assay: as above; assay type: cell-based; conditions: Homo sapiens, MDA-MB-468, 144 h; payloads, proliferation, 6 days, CCK-8; read-out: IC50, nM MDA-MB-468
Protocol: as §1, §2, §3, §4

[1] = molecular target: T1, Human FRAP1 (mTOR) recombinant protein (Homo sapiens, UniProt P42345); assay: FRAP1 (mTOR) kinase activity, LanthaScreen TR-FRET; assay type: biochemical; conditions: 10 μM ATP, 0.4 μM GFP-4EBP1; read-out: FRAP1 (mTOR) (Enzyme, IC50)
T1 construct: GST; purchased Invitrogen PV4753
T1 sequence (P42345 1360-2549 limits assumed): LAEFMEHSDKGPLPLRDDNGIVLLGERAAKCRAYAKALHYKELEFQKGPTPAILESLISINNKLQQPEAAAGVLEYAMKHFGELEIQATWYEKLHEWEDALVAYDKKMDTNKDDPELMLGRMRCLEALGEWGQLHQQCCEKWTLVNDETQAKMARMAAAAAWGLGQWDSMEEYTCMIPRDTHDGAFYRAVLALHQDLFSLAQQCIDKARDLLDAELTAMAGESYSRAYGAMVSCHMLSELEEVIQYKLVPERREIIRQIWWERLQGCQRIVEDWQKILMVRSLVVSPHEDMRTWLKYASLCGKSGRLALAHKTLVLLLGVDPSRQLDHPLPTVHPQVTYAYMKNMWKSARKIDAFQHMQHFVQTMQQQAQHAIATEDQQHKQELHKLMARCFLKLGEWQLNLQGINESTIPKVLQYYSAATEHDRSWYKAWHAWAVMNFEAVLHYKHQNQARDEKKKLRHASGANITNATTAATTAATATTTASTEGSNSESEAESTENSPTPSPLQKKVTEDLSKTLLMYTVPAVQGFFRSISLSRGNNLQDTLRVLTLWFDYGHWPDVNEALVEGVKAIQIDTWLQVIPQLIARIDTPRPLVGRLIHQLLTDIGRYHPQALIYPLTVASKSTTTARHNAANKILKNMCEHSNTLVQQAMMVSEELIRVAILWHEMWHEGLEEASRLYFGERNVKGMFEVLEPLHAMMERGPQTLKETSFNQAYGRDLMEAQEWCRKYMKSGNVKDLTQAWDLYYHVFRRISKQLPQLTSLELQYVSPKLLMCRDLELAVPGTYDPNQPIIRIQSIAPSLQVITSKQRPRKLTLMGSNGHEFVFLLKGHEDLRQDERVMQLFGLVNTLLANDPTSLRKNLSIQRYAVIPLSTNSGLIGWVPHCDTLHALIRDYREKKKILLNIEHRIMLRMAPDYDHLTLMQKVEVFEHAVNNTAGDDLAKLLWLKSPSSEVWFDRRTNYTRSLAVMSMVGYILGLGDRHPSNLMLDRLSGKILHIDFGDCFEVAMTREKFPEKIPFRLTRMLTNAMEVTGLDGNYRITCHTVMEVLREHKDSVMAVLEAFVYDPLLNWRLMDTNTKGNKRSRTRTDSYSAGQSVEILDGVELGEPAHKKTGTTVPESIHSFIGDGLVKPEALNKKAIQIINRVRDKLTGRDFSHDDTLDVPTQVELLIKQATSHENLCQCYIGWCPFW
Protocol: Determination of FRAP1 (mTOR) Kinase Activity • Human FRAP1 (mTOR) recombinant protein (GST tag): Invitrogen, Cat. No. PV4753; • GFP-4E-BP1: Thermo Scientific, Cat. No. PV4759; • LanthaScreenTM Tb-p4E-BP1 ([…]) antibody: Thermo Scientific, Cat. No. PV4755; • TR-FRET dilution buffer: Thermo Scientific, Cat. No. PV3574; • ATP solution (10 mM): Thermo Scientific, Cat. No. PV3227; • HEPES (1 M): Gibco, Cat. No. 15630-106; • EDTA (0.5 M), pH 8.0, RNase-free: Invitrogen, Cat. No. A[…]; • Manganese chloride solution: Sigma-Aldrich, Cat. No. M1787; • EGTA: Sigma-Aldrich, Cat. No. E4378; • TWEEN®20: Sigma-Aldrich, Cat. No. P2287; • DTT: Sigma-Aldrich, Cat. No. DTT-RO; • 384-well plate: Corning, Cat. No. 3676; • 384-well plate: Corning, Cat. No. 4514; • Envision multi-mode plate reader: PerkinElmer; 4EBP1 is the substrate of mTOR, and when mTOR is activated, it will phosphorylate […] of the 4EBP1 protein. LanthaScreenTM kinase assay is used to detect the amount of phosphorylated substrate GFP-4E-BP1 produced in kinase activity experiments, thereby judging the mTOR kinase activity, and through the strength of the kinase activity, distinguishing the inhibitory effects of different compounds on the activity of FRAP1 (mTOR) kinase. […] Then, the 384-well plate was placed in a constant temperature incubator protected from light and incubated at room temperature for 1 hour. […] The 384-well plate was taken out and the plate was read using an Envision multi-mode plate reader (the excitation light wavelength was 320 nm and the emission light wavelengths were 495 nm and 520 nm). The inhibition rate was calculated using the formula as below: [formula]

[2] = molecular target: T2, Human PIK3CA/PIK3R1 (p110α/p85α) recombinant protein (Homo sapiens, UniProt P42336); assay: PIK3CA/PIK3R1 (p110α/p85α) kinase activity, Transcreener ADP2 FP; assay type: biochemical; conditions: 10 μM ATP, 30 μM PIP2:PS; read-out: PIK3CA/PIK3R1 (p110α/p85α) (Enzyme, IC50)
T2 construct: His tag; purchased Invitrogen PV4788
T2 sequence (P42336 whole entry): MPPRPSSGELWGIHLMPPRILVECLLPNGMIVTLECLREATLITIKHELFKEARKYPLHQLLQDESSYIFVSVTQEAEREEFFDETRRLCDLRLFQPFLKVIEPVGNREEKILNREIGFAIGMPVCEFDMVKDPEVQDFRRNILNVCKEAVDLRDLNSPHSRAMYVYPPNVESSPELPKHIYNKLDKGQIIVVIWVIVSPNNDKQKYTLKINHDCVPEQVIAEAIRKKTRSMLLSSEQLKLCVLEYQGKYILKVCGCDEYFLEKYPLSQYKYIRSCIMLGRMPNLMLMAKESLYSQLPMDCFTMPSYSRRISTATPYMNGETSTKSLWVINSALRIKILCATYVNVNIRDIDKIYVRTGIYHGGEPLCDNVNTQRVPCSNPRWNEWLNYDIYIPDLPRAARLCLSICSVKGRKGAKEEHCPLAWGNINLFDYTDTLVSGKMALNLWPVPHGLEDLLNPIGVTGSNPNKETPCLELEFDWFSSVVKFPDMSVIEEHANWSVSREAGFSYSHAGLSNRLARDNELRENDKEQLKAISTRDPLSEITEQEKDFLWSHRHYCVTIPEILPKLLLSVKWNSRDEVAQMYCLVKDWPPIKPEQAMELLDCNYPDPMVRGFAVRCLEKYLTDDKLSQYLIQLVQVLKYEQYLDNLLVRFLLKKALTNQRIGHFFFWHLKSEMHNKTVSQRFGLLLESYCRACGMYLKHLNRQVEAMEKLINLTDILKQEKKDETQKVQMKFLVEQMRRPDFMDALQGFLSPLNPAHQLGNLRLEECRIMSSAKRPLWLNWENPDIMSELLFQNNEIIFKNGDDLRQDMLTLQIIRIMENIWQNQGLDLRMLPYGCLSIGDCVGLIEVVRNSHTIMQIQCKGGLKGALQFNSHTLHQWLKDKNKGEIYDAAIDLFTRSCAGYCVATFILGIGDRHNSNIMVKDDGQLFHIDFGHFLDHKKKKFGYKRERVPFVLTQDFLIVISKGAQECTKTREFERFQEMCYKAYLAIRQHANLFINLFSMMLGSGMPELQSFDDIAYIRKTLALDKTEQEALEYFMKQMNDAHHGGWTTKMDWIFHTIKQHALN
T2 sequence (P27986 whole entry partner): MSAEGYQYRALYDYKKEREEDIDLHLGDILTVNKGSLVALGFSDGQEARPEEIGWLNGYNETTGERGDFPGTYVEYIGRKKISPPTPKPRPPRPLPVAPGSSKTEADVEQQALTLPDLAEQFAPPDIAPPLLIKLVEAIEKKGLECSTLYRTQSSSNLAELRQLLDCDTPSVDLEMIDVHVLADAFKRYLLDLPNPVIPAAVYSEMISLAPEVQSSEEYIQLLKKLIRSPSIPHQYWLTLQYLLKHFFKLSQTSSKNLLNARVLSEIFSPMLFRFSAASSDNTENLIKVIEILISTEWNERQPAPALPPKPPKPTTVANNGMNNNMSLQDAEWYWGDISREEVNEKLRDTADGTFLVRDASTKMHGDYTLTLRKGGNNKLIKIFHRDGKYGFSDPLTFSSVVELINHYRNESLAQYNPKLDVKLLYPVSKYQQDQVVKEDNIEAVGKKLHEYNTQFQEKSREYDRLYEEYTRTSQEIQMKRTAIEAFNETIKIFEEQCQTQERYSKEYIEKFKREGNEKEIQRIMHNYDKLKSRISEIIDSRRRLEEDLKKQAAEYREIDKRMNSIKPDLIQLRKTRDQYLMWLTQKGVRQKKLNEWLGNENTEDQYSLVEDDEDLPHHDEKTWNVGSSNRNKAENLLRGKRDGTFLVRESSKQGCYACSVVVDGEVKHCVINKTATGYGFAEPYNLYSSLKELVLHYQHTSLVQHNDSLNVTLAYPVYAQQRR
Protocol: The complex formed by the binding of the ADP Alexa633 Tracer to the ADP2 antibody therein could produce fluorescence polarization. […] Assay is carried out according to the instruction of the kit. […] After that, 10 μl PIK3CA/PIK3R1 (p110α/p85α) enzyme solution was added to each well; then, 10 μl of a mixed solution of ATP and PIP2:PS lipid kinase substrate was added to each well, and the mixture was centrifuged at 1000 rpm for 60 seconds; Then, the 96-well plate was placed in a constant temperature incubator protected from light and incubated at room temperature for 1 hour. […] After the enzymatic reaction was completed, 25 μl of ADP detection mixture was added to the positive control group, 25 μl of ADP detection mixture without ADP^2 antibody was added to the negative control group, and 25 μl of ADP detection mixture without tracer-label ADP and ADP^2 antibody was added to the blank control group. Then centrifugation was performed at 1000 rpm for 60 seconds. The 96-well plate was placed in a constant temperature incubator protected from light, and incubated at room temperature for 1.5 hours. […] [formula] The inhibition rate was calculated using the formula as below: [formula]

ATM(h) = ATM(h) (Homo sapiens, UniProt Q13315); assay: ATM(h) kinase activity, HTRF (Eurofins Cerep); assay type: biochemical; conditions: read-out: ATM(h) (enzyme, IC50)
Protocol: (§5) The […], ATM(h), ATR/ATRIP(h), and DNA-PK (h) were detected by HTRFR.
(§6) The calculation formula was as follows: […]
(§7) For IC50 determination, the data were analyzed using XLFit version 5.3 (ID Business Solutions).

DNA-PK(h) = molecular target: T3, DNA-PK(h) (Homo sapiens, UniProt P78527); assay: DNA-PK(h) kinase activity, HTRF (Eurofins Cerep); assay type: biochemical; conditions: read-out: DNA-PK(h) (enzyme, IC50)
T3 construct: purchased Eurofins Cerep 14-950
Protocol: as §5, §6, §7

ATR/ATRIP(h) = molecular target: T4, ATR/ATRIP(h) (Homo sapiens, UniProt Q13535); assay: ATR/ATRIP(h) kinase activity, HTRF (Eurofins Cerep); assay type: biochemical; conditions: read-out: ATR/ATRIP(h) (enzyme, IC50)
T4 construct: purchased Eurofins Cerep 14-953
Protocol: as §5, §6, §7

| Compound | IC50 (MDA-MB-453) | IC50 (MDA-MB-468) | pIC50 [1] | pIC50 [2] | pIC50 (ATM(h)) | pIC50 (DNA-PK(h)) | pIC50 (ATR/ATRIP(h)) |
| --- | --- | --- | --- | --- | --- | --- | --- |
| COc1ncc(-c2ccc3ncc4c(c3c2)n([C@H]2C[C@H](O)C2)c(=O)n4C)cc1NS(=O)(=O)N1CCNCC1 [Compound 7] | 0.3 nM | 0.22 nM | 8.57 | 9.30 | – | – | – |
| COc1ncc(-c2ccc3ncc4c(c3c2)n([C@H]2C[C@H](CO)C2)c(=O)n4C)cc1NS(=O)(=O)N1CCNCC1 [Compound 8] | 0.32 nM | 0.21 nM | – | – | – | – | – |
| COc1ncc(-c2ccc3ncc4c(c3c2)n(C2CC2)c(=O)n4C)cc1NS(=O)(=O)N1CCN(C)CC1 [Compound 10] | 2.3 nM | – | – | – | – | – | – |
| COc1ncc(-c2ccc3ncc4c(c3c2)n(C2CC2)c(=O)n4C)cc1NS(=O)(=O)N1CC2CNCC2C1 (stereo not drawn) [Compound 12] | 3.3 nM | 7.9 nM | – | – | – | – | – |
| COc1ncc(-c2ccc3ncc4c(c3c2)n(C2CC2)c(=O)n4C)cc1NS(=O)(=O)C1CCNCC1 [Compound 14] | 0.39 nM | 0.41 nM | 7.95 | 9.22 | – | – | – |
| COc1ncc(-c2ccc3ncc4c(c3c2)n(C2CC2)c(=O)n4C)cc1NS(=O)(=O)N1CCC2(CC1)CNC2 [Compound 15] | 14.9 nM | 18.4 nM | – | – | – | – | – |
| COc1ncc(-c2ccc3ncc4c(c3c2)n(C2CC2)c(=O)n4C)cc1NS(=O)(=O)N1CCN(CCO)CC1 [Compound 22] | 6.5 nM | 9.2 nM | – | – | – | – | – |
| COc1ncc(-c2ccc3ncc4c(c3c2)n(C2CC(F)(F)C2)c(=O)n4C)cc1NS(=O)(=O)N1CCNCC1 [Compound 25] | 0.34 nM | 0.2 nM | 7.97 | – | – | – | – |
| COc1ncc(-c2ccc3ncc4c(c3c2)n([C@H]2C[C@H](CO)C2)c(=O)n4C)cc1NS(=O)(=O)N1CCN(C)CC1 [Compound 26] | 1.8 nM | 1.9 nM | – | – | – | – | – |
| COc1ncc(-c2ccc3ncc4c(c3c2)n([C@@H]2C[C@@H]2F)c(=O)n4C)cc1NS(=O)(=O)N1CCNCC1 [Compound 27] | 0.24 nM | 0.29 nM | 8.19 | – | 9.15 | 9.70 | 7.77 |
| COc1ncc(-c2ccc3ncc4c(c3n2)n(C2CC2)c(=O)n4C)cc1NS(=O)(=O)N1CCNCC1 [Compound 28] | – | 0.24 nM | 8.55 | 9.22 | 9.22 | 9.52 | 7.89 |
| COc1ncc(-c2ccc3ncc4c(c3c2)n(CC(F)(F)F)c(=O)n4C)cc1NS(=O)(=O)N1CCNCC1 [Compound 32] | 0.22 nM | 0.24 nM | – | 8.55 | 9.22 | 9.52 | 7.77 |
| Cn1c(=O)n(C2CC2)c2c3cc(-c4cnc(OCC(F)(F)F)c(NS(=O)(=O)N5CCNCC5)c4)ccc3ncc21 [Compound 34] | 2.8 nM | 3.4 nM | – | – | – | – | – |

The next lines start with the values.

| IC50 (MDA-MB-453) | IC50 (MDA-MB-468) | pIC50 [1] | pIC50 [2] | pIC50 (ATM(h)) | pIC50 (DNA-PK(h)) | pIC50 (ATR/ATRIP(h)) | Compound |
| --- | --- | --- | --- | --- | --- | --- | --- |
| 0.89 nM | 0.71 nM | – | – | – | – | – | COc1ncc(-c2ccc3ncc4nnc(C5CCC5)n4c3c2)cc1NS(=O)(=O)N1CCNCC1 [Compound 4] |
| 0.064 nM | 0.09 nM | 8.12 | 8.80 | – | – | – | COc1ncc(-c2ccc3ncc4c(c3c2)n(C2CCC2)c(=O)n4C)cc1NS(=O)(=O)N1CCNCC1 [Compound 5] |
| 0.25 nM | 0.32 nM | – | – | – | – | – | COc1ncc(-c2ccc3ncc4c(c3c2)n(C)c(=O)n4C)cc1NS(=O)(=O)N1CCNCC1 [Compound 6] |
| – | 1 nM | – | – | – | – | – | COc1ncc(-c2ccc3ncc4nnc(C5CC5)n4c3c2)cc1NS(=O)(=O)N1CCNCC1 [Compound 9] |
| 1.3 nM | 1.8 nM | – | – | – | – | – | COc1ncc(-c2ccc3ncc4c(c3c2)C(C2CC2)N=N4)cc1NS(=O)(=O)N1CCNCC1 (stereo not drawn) [Compound 13] |
| 61.6 nM | 91.4 nM | – | – | – | – | – | COc1ncc(-c2ccc3ncc4c(c3c2)n(C2COC2)c(=O)n4C)cc1NS(=O)(=O)N1CCNCC1 [Compound 16] |
| 1.8 nM | 3.4 nM | – | – | – | – | – | COc1ncc(-c2ccc3ncc4ncn(C5CCC5)c4c3c2)cc1NS(=O)(=O)N1CCNCC1 [Compound 17] |
| – | 0.091 nM | 8.21 | 8.68 | – | – | – | COc1ncc(-c2ccc3ncc4cnc(C5CCC5)n4c3c2)cc1NS(=O)(=O)N1CCNCC1 [Compound 18] |
| 0.12 nM | 0.055 nM | 8.07 | 8.85 | – | – | – | COc1ncc(-c2ccc3ncc4c(c3c2)n(C2CCCC2)c(=O)n4C)cc1NS(=O)(=O)N1CCNCC1 [Compound 19] |
| – | 1 nM | – | – | – | – | – | COc1ncc(-c2ccc3ncc4cnc(C)n4c3c2)cc1NS(=O)(=O)N1CCNCC1 [Compound 20] |
| 6.6 nM | 4.9 nM | – | – | – | – | – | COc1ncc(-c2ccc3ncc4nccn4c3c2)cc1NS(=O)(=O)N1CCNCC1 [Compound 21] |
| 0.55 nM | 1.4 nM | 8.47 | 9.15 | – | – | – | COc1ncc(-c2ccc3ncc4ncc(C5CC5)n4c3c2)cc1NS(=O)(=O)N1CCNCC1 [Compound 23] |
| 0.24 nM | 0.2 nM | – | 8.74 | – | – | – | COc1ncc(-c2ccc3ncc4cnc(C5CC(F)(F)C5)n4c3c2)cc1NS(=O)(=O)N1CCNCC1 [Compound 24] |
| 0.24 nM | – | – | – | 9.40 | 9.70 | 7.82 | COc1ncc(-c2ccc3ncc4c(C)nc(C5CC5)n4c3c2)cc1NS(=O)(=O)N1CCNCC1 [Compound 31] |
| 2.3 nM | 3 nM | – | – | – | – | – | COc1ncc(-c2ccc3ncc4c(c3c2)n(C2CC2)c(=O)n4CC(F)(F)F)cc1NS(=O)(=O)N1CCNCC1 [Compound 33] |
| 0.22 nM | 0.2 nM | – | – | – | – | – | [2H]C([2H])([2H])n1c(=O)n(C2CC2)c2c3cc(-c4cnc(OC)c(NS(=O)(=O)N5CCNCC5)c4)ccc3ncc21 [Compound 35] |
| 7.9 nM | 6 nM | – | – | – | – | – | COc1ncc(-c2ccc3ncc4nnc(C5CC5)n4c3c2)cc1NS(=O)(=O)N1CCN(C)CC1 [Reference compound 1, reference compound] |
